SMILES strings stand for the structures.

This note sets out measurements from ChEMBL document CHEMBL1140502, “Synthesis of some tropane derivatives of anticipated activity on the reuptake of norepinephrine and/or serotonin” (2007).

Common to all, as to format: functional
For assay [1], the system named is Mus musculus. Description: Inhibition of SERT-mediated serotonin-reuptake assessed as 5-hydroxytryptophan induced intraperitoneally dosed mouse head twitch after 20 mins. The conditions noted are these: ip.
Assay [2] concerns Mus musculus. Description: Inhibition of NET-mediated norepinephrine-reuptake assessed as yohimbine induced mortality in intraperitoneally dosed mouse after 24 hrs. The following applies: ip.
The species entered for assay [3] is Mus musculus. Description: Selectivity ratio of ED50 for 5-HT reuptake in mouse to ED50 for norepinephrine reuptake in mouse.
Assay [4] has as its system Mus musculus. The assay is described as follows: Inhibition of SERT-mediated serotonin-reuptake assessed as 5-hydroxytryptophan induced mouse head twitch at 6.47 mM/kg, ip after 20 mins. On the set-up: scale not given: the % may be the effect or the level left.
In assay [5] the test system is Mus musculus. The assay is described as follows: Inhibition of NET-mediated norepinephrine-reuptake assessed as yohimbine induced mortality in mouse at 6.47 mM/kg, ip after 24 hrs. More on the design: scale not given: the % may be the effect or the level left.
The test system of assay [6] is Mus musculus. Description: Inhibition of SERT-mediated serotonin-reuptake assessed as 5-hydroxytryptophan induced mouse head twitch at 12.94 mM/kg, ip after 20 mins. More on the design: scale not given: the % may be the effect or the level left.
The subject of assay [7] is Mus musculus. The assay is described as follows: Inhibition of NET-mediated norepinephrine-reuptake assessed as yohimbine induced mortality in mouse at 12.94 mM/kg, ip after 24 hrs. On the set-up: scale not given: the % may be the effect or the level left.
Assay [8] relates to Mus musculus. The assay is described as follows: Inhibition of NET-mediated norepinephrine-reuptake assessed as yohimbine induced mortality in mouse at 3.24 mM/kg, ip after 24 hrs. More on the design: scale not given: the % may be the effect or the level left.
For assay [9], the system named is Mus musculus. The assay is described as follows: Inhibition of SERT-mediated serotonin-reuptake assessed as 5-hydroxytryptophan induced mouse head twitch at 3.24 mM/kg, ip after 20 mins. On the set-up: scale not given: the % may be the effect or the level left.
Assay [10] has as its system Mus musculus. Description: Inhibition of NET-mediated norepinephrine-reuptake assessed as yohimbine induced mortality in mouse at 19.42 mM/kg, ip after 24 hrs. On the set-up: scale not given: the % may be the effect or the level left.
Assay [11] deals with Mus musculus. Description: Inhibition of NET-mediated norepinephrine-reuptake assessed as yohimbine induced mortality in mouse at 25.89 mM/kg, ip after 24 hrs. On the set-up: scale not given: the % may be the effect or the level left.
Assay [12] deals with Mus musculus. The assay is described as follows: Inhibition of NET-mediated norepinephrine-reuptake assessed as yohimbine induced mortality in mouse at 9.71 mM/kg, ip after 24 hrs. More on the design: scale not given: the % may be the effect or the level left.
Assay [13] concerns Mus musculus. Description: Inhibition of SERT-mediated serotonin-reuptake assessed as 5-hydroxytryptophan induced mouse head twitch at 1.62 mM/kg, ip after 20 mins. On the set-up: scale not given: the % may be the effect or the level left.
Assay [14] has as its system Mus musculus. The assay is described as follows: Inhibition of SERT-mediated serotonin-reuptake assessed as 5-hydroxytryptophan induced mouse head twitch at 4.86 mM/kg, ip after 20 mins. On the set-up: scale not given: the % may be the effect or the level left.

Consider `CNCCC(Oc1ccc(C(F)(F)F)cc1)c1ccccc1` (stereo not drawn) [FLUOXETINE], for which the results for the ED50 with Mus musculus [1] and in the assay on Mus musculus [2] were 5.09 µmol/kg and over 12900 µmol/kg, respectively. The “Ratio ED50” value in the assay filed under Mus musculus [3] is reported as under 0.39. Further, the Activity is listed as 50% in the assay with Mus musculus [4]; 0% in the assay on Mus musculus [5]; 100% in the assay with Mus musculus [6]; 0% in the assay on Mus musculus [7]; 0% with Mus musculus [8]; 16.67% with Mus musculus [9].
With `CN1C2CCC1CC(Oc1ccc(C(F)(F)F)cc1)(c1ccccc1)C2` (stereo not drawn), the ED50 amounted to 3.3 µmol/kg with Mus musculus [1] and 11300 µmol/kg in the assay on Mus musculus [2]. For the same compound, the “Ratio ED50” value in the assay listed under Mus musculus [3] was 0.29. Further, the Activity in the assay on Mus musculus [4] worked out at 66.67%; with Mus musculus [5], 0%; with Mus musculus [6] it was 83.33%; in the assay on Mus musculus [7], 66.67%; in the assay with Mus musculus [9] it was 50%; with Mus musculus [10], 66.67%. Also, the Activity with Mus musculus [11] was determined as 100%.
For the compound `CN(C)CCCN1c2ccccc2CCc2ccc(Cl)cc21` [CLOMIPRAMINE], the ED50 in the assay on Mus musculus [1] was 2 µmol/kg; with Mus musculus [2] it was 5780 µmol/kg. Besides, in the assay filed under Mus musculus [3], the “Ratio ED50” value is on record as 0.35. The Activity is recorded as 83.3% in the assay on Mus musculus [4]; 66.67% with Mus musculus [12]; 16.67% in the assay with Mus musculus [8]; 50% in the assay with Mus musculus [9]; 50% in the assay with Mus musculus [13].
For the compound `CN1C2CCC1CC(Oc1ccc(Br)cc1)(c1ccccc1)C2` (stereo not drawn), the ED50 with Mus musculus [2] turned out to be 11400 µmol/kg. Moreover, the “Ratio ED50” value in the assay filed under Mus musculus [3] stood at 0.56. The Activity in the assay on Mus musculus [4] turned out to be 50%; in the assay on Mus musculus [5], 16.67%; in the assay with Mus musculus [6] it was 66.67%; in the assay with Mus musculus [7] it was 50%; with Mus musculus [9], 33.33%; in the assay on Mus musculus [11], 100%.
Take `CN1C2CCC1CC(Oc1ccc(C#N)cc1)(c1ccc(F)cc1)C2` (stereo not drawn): the ED50 with Mus musculus [1] is 2.94 µmol/kg; in the assay on Mus musculus [2], 5020 µmol/kg. In addition, the “Ratio ED50” value in the assay filed under Mus musculus [3] amounted to 0.59. For the same compound, the Activity is 66.67% in the assay on Mus musculus [14]; “Toxic” in the assay with Mus musculus [4]; 66.67% in the assay on Mus musculus [5]; 100% in the assay with Mus musculus [7]; 16.67% in the assay with Mus musculus [8]; 50% in the assay on Mus musculus [9]. Further, the Activity in the assay with Mus musculus [13] stood at 33.33%.
Consider `CN1C2CCC1CC(Oc1ccc(C#N)cc1)(c1ccccc1)C2` (stereo not drawn), for which the results for the ED50 in the assay on Mus musculus [1] and in the assay with Mus musculus [2] were 4.44 µmol/kg and 4080 µmol/kg, respectively. Also, the “Ratio ED50” value in the assay filed under Mus musculus [3] came to 1.08. For the same compound, the Activity in the assay on Mus musculus [4] was determined as 66.67%; in the assay with Mus musculus [5] it was 50%; in the assay on Mus musculus [7], 83.33%; in the assay with Mus musculus [8] it was 50%; in the assay with Mus musculus [9] it was 33.33%; in the assay with Mus musculus [13], 16.67%.
On to `CN1C2CCC1CC(Oc1ccc([N+](=O)[O-])cc1)(c1ccccc1)C2` (stereo not drawn), for which the ED50 with Mus musculus [1] came to 2.94 µmol/kg; in the assay with Mus musculus [2] it was 10300 µmol/kg. For the same compound, the “Ratio ED50” value in the assay listed under Mus musculus [3] was 0.29. The Activity was 66.67% in the assay on Mus musculus [14]; “Toxic” with Mus musculus [4]; 50% in the assay with Mus musculus [5]; 50% with Mus musculus [7]; 0% in the assay with Mus musculus [8]; 50% in the assay with Mus musculus [9]. Besides, the Activity with Mus musculus [13] is 33.33%; in the assay on Mus musculus [11], “Toxic”.
As for `CN1C2CCC1CC(Oc1ccc(Cl)cc1)(c1ccccc1)C2` (stereo not drawn), the ED50 with Mus musculus [1] turned out to be 4.72 µmol/kg; with Mus musculus [2], 16100 µmol/kg. The “Ratio ED50” value in the assay listed under Mus musculus [3] is 0.29. Moreover, the Activity came out at 66.67% in the assay with Mus musculus [4]; 33.33% in the assay on Mus musculus [5]; 83.33% in the assay on Mus musculus [6]; 33.33% with Mus musculus [7]; 33.33% in the assay on Mus musculus [9]; 66.67% with Mus musculus [11].
Take `CN1C2CCC1CC(Oc1cccc(C(F)(F)F)c1)(c1ccccc1)C2` (stereo not drawn): the ED50 is 5.46 µmol/kg with Mus musculus [1] and 53100 µmol/kg in the assay on Mus musculus [2]. Besides, the “Ratio ED50” value in the assay filed under Mus musculus [3] is on record as 0.1. In addition, the Activity in the assay with Mus musculus [4] is listed as 50%; with Mus musculus [5] it was 16.67%; with Mus musculus [6] it was 83.33%; in the assay on Mus musculus [7], 33.33%; with Mus musculus [8] it was 0%; in the assay on Mus musculus [9], 33.33%. In addition, the Activity result with Mus musculus [10] and in the assay on Mus musculus [11] was “Toxic” each time.
On to `CN(C)CCCC1(c2ccc(F)cc2)OCc2cc(C#N)ccc21` (stereo not drawn) [CITALOPRAM], for which the ED50 was determined as 1.58 µmol/kg in the assay with Mus musculus [1] and 13700 µmol/kg in the assay on Mus musculus [2]. Also, the “Ratio ED50” value in the assay listed under Mus musculus [3] came to 0.12. Moreover, the Activity with Mus musculus [4] was 100%; in the assay on Mus musculus [5], 0%; in the assay on Mus musculus [7], 16.67%; in the assay on Mus musculus [9], 83.33%; in the assay on Mus musculus [13] it was 50%.

What is called ED50 is the dose at which the effect has come halfway, by size or by number of responders.
